Data reported in PubChem BioAssay (NCI).
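Interpolation was linear, between the two tested concentrations surrounding the appropriate level; five concentrations were tested over 48 hours in 96-well plates. Here, GI50 denotes the concentration required for 50% inhibition of growth. TGI marks complete inhibition of growth.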

Experiments:
Test in all cases: NCI tumour cell line growth inhibition, 48 h
[1] = test system: A498 renal
[2] = test system: HL-60(TB) leukemia
[3] = test system: HOP-92 NSCLC
[4] = test system: K-562 leukemia
[5] = test system: NCI/ADR-RES ovarian
[6] = test system: OVCAR-4 ovarian
[7] = test system: SF-268 CNS
[8] = test system: SK-MEL-5 melanoma
[9] = test system: SN12C renal
[10] = test system: UACC-62 melanoma

| SMILES | TGI [1] [µM] | TGI [2] [µM] | TGI [3] [µM] | TGI [4] [µM] | TGI [5] [µM] | TGI [6] [µM] | TGI [7] [µM] | TGI [8] [µM] | TGI [9] [µM] | TGI [10] [µM] | GI50 [2] [µM] | GI50 [5] [µM] | GI50 [6] [µM] | GI50 [7] [µM] | GI50 [9] [µM] | GI50 [1] [µM] | GI50 [3] [µM] | GI50 [4] [µM] | GI50 [8] [µM] | GI50 [10] [µM] |
| --- | --- | --- | --- | --- | --- | --- | --- | --- | --- | --- | --- | --- | --- | --- | --- | --- | --- | --- | --- | --- |
| CCCC(=O)OC1C(C(O)CO)OC2OC(C)(C)OC21 (stereo not drawn) | > 100 | < 3.16 | > 100 | < 3.16 | > 100 | > 100 | > 100 | > 100 | > 100 | > 100 |  |  |  |  |  |  |  |  |  |  |
| COc1cc(/C=C/c2cc(O)c3cc(C(C)=O)c(=O)oc3c2)cc2c1O[C@]1(C)CC[C@@H](O)C(C)(C)[C@H]1C2 | > 28.2 | 10.7 | > 28.5 | > 100 | > 88.9 | > 74.3 | > 56.4 |  | > 68 | > 27.8 | 2.12 | > 36.4 | > 43 | > 21.4 | > 33 |  |  |  |  |  |
| Cn1cccc1-c1cc(-c2cccs2)nc(N)c1C#N | > 100 | > 100 | > 100 | > 100 | > 100 | > 100 | > 100 | > 100 | > 100 | > 100 | > 100 | > 100 | > 100 | > 100 | > 100 | > 100 | > 100 | > 100 | > 100 | 87 |
| CC(CCC(=O)O)[C@H]1CCC2[C@@H]3CC[C@@H]4CC(O)CC[C@]4(C)C3CC[C@@]21C (stereo partly drawn) | > 100 | > 100 | 87.9 | > 100 | > 100 | > 100 | > 100 |  | > 100 | > 100 | 52.3 | 54.3 | 31.4 | > 100 | > 100 |  | 28 | 32.6 |  | 38.6 |
| COc1ccc2c(c1)/C(=C\c1c(C)nc3sccn13)C(=O)N2 | 0.0646 | 0.534 | > 100 | > 100 | > 42.2 | > 100 | > 100 | 3.39 | > 91.7 | 3.35 | 0.136 |  | 4.01 | 15.7 | 0.0889 | < 0.01 | 0.83 | 0.0956 | < 0.0474 | < 0.0356 |
| O=C(O)/C=C\C(=O)N1C/C(=C\c2ccccc2Cl)C(=O)/C(=C/c2ccccc2Cl)C1 |  | 11.8 | 15.5 | 82 | 22.5 | 13.6 | 3.54 | 12 | 9.31 | 3.97 | 3.37 | 4.08 | 3.37 | 1.67 | 2.93 |  | 4.43 | 2.44 | 3.03 | 1.88 |
| CC[C@@H](C(=O)O)C1CC[C@H](C)C([C@@H](C)[C@H](O)[C@H](C)C(=O)[C@H](CC)C2O[C@]3(C=C[C@@H](O)[C@]4(CC[C@@](C)(C5CC[C@](O)(CC)[C@H](C)O5)O4)O3)[C@H](C)C[C@@H]2C)O1 (stereo partly drawn) | 0.799 | 0.347 | 4.93 | 15.6 | 34.7 | 33.7 | 16 | 0.86 | 28.7 | 2.15 | 0.0406 | 0.443 | 0.657 | 1.31 | 0.128 | 0.0458 | 0.317 | 0.306 | 0.18 | 0.767 |
